Assay results from US20050043378A1, “LTA4H modulators” (priority 2003, published 2005).
Where two headings read alike, the source gives them in different places.

What was measured:
[1] = system: ex vivo stimulated LTB4 production in blood; test: Murine arachidonic acid-induced inflammation model: ex vivo stimulated LTB4 production; parameters: species or system female Balb/c mice; conditions: Mus musculus; 30 mg/kg oral gavage; blood taken 3 h after arachidonic acid, ex vivo A23187 stimulation; vs animals without inhibitor; read-out: % Inh. LTB4
[2] = system: neutrophil influx (myeloperoxidase, MPO); test: Murine arachidonic acid-induced inflammation model: neutrophil influx (myeloperoxidase activity in ear biopsies); format: in vivo, female Balb/c mice; conditions: Mus musculus, 30 mg/kg oral gavage 60 min before topical arachidonic acid to ear, ear biopsies after 3 h, vs animals without inhibitor, read-out: % Inh. MPO
[3] = system: LTB4 production by calcium ionophore-stimulated murine blood; test: LTB4 production by calcium ionophore-stimulated murine blood for LTA4H inhibitor activity; format: cell-based, CD-1 mice
[4] = molecular target: T1, recombinant human LTA4 hydrolase (rhLTA4H) (Homo sapiens, UniProt P09960); test: Recombinant human LTA4 hydrolase assay for LTA4 hydrolase inhibitor activity; format: biochemical; conditions: LTA4 substrate, LTB4 by immunoassay, average of one to three determinations;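 note: enzyme expressed in Sf-9 insect cells, compound preincubated 10 min with enzyme, 10 min reaction at room temperature, uninhibited reaction as positive control, enzyme-free blank as negative control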
T1 construct: made in house; host or cells: Spodoptera frugiperda (Sf-9) cells, baculovirus (pFastBac1)
T1 sequence (P09960 1-611): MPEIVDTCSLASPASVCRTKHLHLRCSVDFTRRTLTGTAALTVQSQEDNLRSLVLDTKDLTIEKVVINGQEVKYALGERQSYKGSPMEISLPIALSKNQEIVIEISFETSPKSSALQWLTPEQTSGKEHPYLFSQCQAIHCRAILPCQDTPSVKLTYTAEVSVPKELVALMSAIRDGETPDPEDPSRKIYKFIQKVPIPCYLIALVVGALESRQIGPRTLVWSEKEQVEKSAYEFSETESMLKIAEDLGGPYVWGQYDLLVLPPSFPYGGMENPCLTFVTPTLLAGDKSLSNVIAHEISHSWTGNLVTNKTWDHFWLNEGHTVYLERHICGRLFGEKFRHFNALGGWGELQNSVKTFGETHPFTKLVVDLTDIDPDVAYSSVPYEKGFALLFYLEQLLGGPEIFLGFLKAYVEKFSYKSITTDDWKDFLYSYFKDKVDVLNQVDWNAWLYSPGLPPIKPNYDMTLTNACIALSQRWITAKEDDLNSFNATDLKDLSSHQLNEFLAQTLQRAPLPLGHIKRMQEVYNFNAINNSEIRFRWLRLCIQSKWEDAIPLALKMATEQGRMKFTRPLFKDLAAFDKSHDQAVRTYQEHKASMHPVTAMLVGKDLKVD

[5] = diluted CD-1 mouse whole blood, A23187 stimulation, LTB4 by immunoassay, read-out: IC50

## NC(=O)C1CCN(Cc2ccc(Oc3nc4ccccc4s3)cc2)CC1 [Example 274, 1-[4-(Benzothiazol-2-yloxy)-benzyl]-piperidine-4-carboxylic acid amide]
[1]
  inhibition at 30 mg/kg: 93%
[2]
  inhibition in vivo at 30 mg/kg: 87%

## c1ccc2oc(Oc3ccc(OCCN4CCCCC4)cc3)nc2c1 [Example 11, 2-[4-(2-Piperidin-1-yl-ethoxy)-phenoxy]-benzooxazole]
[3]; [5]
  IC50: 44 nM
[2]
  inhibition in vivo at 30 mg/kg: 95%

## O=C(O)C1CCN(Cc2ccc(Oc3nc4ccccc4s3)cc2)CC1 [Example 250, 1-[4-(Benzothiazol-2-yloxy)-benzyl]-piperidine-4-carboxylic acid]
[1]
  inhibition at 30 mg/kg: 80%
[2]
  inhibition in vivo at 30 mg/kg: 94%

## OCCC1CCN(Cc2ccc(Oc3nc4ccccc4s3)cc2)CC1 [Example 296, 2-{1-[4-(Benzothiazol-2-yloxy)-benzyl]-piperidin-4-yl}-ethanol]
[4]
  IC50: 33 nM
[3]; [5]
  IC50: 133 nM

## O=C1C[C@H](O)CN1C1CCN(CCOc2ccc(Oc3nc4ccccc4s3)cc2)CC1 [Example 207, (S)-1-(1-{2-[4-(Benzothiazol-2-yloxy)-phenoxy]-ethyl}-piperidin-4-yl)-4-hydroxy-pyrrolidin-2-one]
[4]
  IC50: 16 nM
[3]; [5]
  IC50: 81 nM

## CCN(CCCN1CCCC1=O)Cc1ccc(Oc2nc3ccccc3s2)cc1 [Example 437, 1-(3-{[4-(Benzothiazol-2-yloxy)-benzyl]-ethyl-amino}-propyl)-pyrrolidin-2-one]
[4]
  IC50: 21 nM
[3]; [5]
  IC50: 105 nM

## OCCCN(CCc1ccc(Oc2nc3ccccc3s2)cc1)C1CC1 [Example 198, 3-({2-[4-(Benzothiazol-2-yloxy)-phenyl]-ethyl}-cyclopropyl-amino)-propan-1-ol]
[3]; [5]
  IC50: 39 nM

## OCCN(CCc1ccc(Oc2nc3ccccc3s2)cc1)CC1CC1 [Example 380, 2-({2-[4-(Benzothiazol-2-yloxy)-phenyl]-ethyl}-cyclopropylmethyl-amino)-ethanol]
[4]
  IC50: 6 nM
[3]; [5]
  IC50: 17 nM

## OCC1CCCN(Cc2ccc(Oc3nc4ccccc4s3)cc2)C1 (stereo not shown) [Example 302, {1-[4-(Benzothiazol-2-yloxy)-benzyl]-piperidin-3-yl}-methanol]
[4]
  IC50: 60 nM
[3]; [5]
  IC50: 212 nM

## CN(C)CCOc1ccc(Oc2nc3ccccc3o2)cc1 [Example 46, {2-[4-(Benzooxazol-2-yloxy)-phenoxy]-ethyl}-dimethyl-amine]
[4]
  IC50: 17 nM
[3]; [5]
  IC50: 29 nM

## OC1CCN(CCOc2ccc(Oc3nc4ccccc4o3)cc2)CC1 [Example 14, 1-{2-[4-(Benzooxazol-2-yloxy)-phenoxy]-ethyl}-piperidin-4-ol]
[3]; Mus musculus
  IC50: 89 nM
[1]
  inhibition at 30 mg/kg: 81%
[2]
  inhibition in vivo at 30 mg/kg: 56%

## O=C1C[C@@H](O)CN1C1CCN(CCOc2ccc(Oc3nc4ccccc4s3)cc2)CC1 [Example 261, (R) 1-(1-{2-[4-(Benzothiazol-2-yloxy)-phenoxy]-ethyl}-piperidin-4-yl)-4-hydroxy-pyrrolidin-2-one]
[4]
  IC50: 33 nM
[3]; [5]
  IC50: 81 nM

## CC(=O)N(C)C1CCN(Cc2ccc(Oc3nc4ccccc4s3)cc2)CC1 [Example 471, N-{1-[4-(Benzothiazol-2-yloxy)-benzyl]-piperidin-4-yl}-N-methyl-acetamide]
[4]
  IC50: 19 nM
[1]
  inhibition at 30 mg/kg: 90%
[2]
  inhibition in vivo at 30 mg/kg: 89%

## O=C1C[C@@H](O)CN1C1CCN(CCc2ccc(Oc3nc4ccccc4s3)cc2)CC1 [Example 334, (R)-1-(1-{2-[4-(Benzothiazol-2-yloxy)-phenyl]-ethyl}-piperidin-4-yl)-4-hydroxy-pyrrolidin-2-one]
[4]
  IC50: 100 nM
[3]; [5]
  IC50: 453 nM

## OCC1CCN(CCOc2ccc(Oc3nc4ccccc4[nH]3)cc2)CC1 [Example 133, (1-{2-[4-(1H-Benzoimidazol-2-yloxy)-phenoxy]-ethyl}-piperidin-4-yl)-methanol]
[4]
  IC50: 111 nM
[3]; [5]
  IC50: 290 nM

## CCN(CC)CCOc1ccc(Oc2nc3ccccc3o2)cc1 [Example 484, {2-[4-(Benzooxazol-2-yloxy)-phenoxy]-ethyl}-diethyl-amine]
[4]
  IC50: 19 nM
[3]; [5]
  IC50: 11 nM

## CS(=O)(=O)NC1CCN(Cc2ccc(Oc3nc4ccccc4s3)cc2)CC1 [Example 361, N-{1-[4-(Benzothiazol-2-yloxy)-benzyl]-piperidin-4-yl}-methanesulfonamide]
[4]
  IC50: 8 nM
[1]
  inhibition at 30 mg/kg: 86%
[2]
  inhibition in vivo at 30 mg/kg: 90%

## OCC1CCCCN1Cc1ccc(Oc2nc3ccccc3s2)cc1 (stereo not shown) [Example 298, {1-[4-(Benzothiazol-2-yloxy)-benzyl]-piperidin-2-yl}-methanol]
[4]
  IC50: 15 nM
[3]; [5]
  IC50: 69 nM

## OCC1CCCN(CCc2ccc(Oc3nc4ccccc4s3)cc2)C1 (stereo not shown) [Example 161, (1-{2-[4-(Benzothiazol-2-yloxy)-phenyl]-ethyl}-piperidin-3-yl)-methanol]
[4]
  IC50: 1 nM
[3]; [5]
  IC50: 100 nM

## O=C(CO)N1CCN(CCc2ccc(Oc3nc4ccccc4s3)cc2)CC1 [Example 325, 1-(4-{2-[4-(Benzothiazol-2-yloxy)-phenyl]-ethyl}-piperazin-1-yl)-2-hydroxy-ethanone]
[4]
  IC50: 12 nM
[1]
  inhibition at 30 mg/kg: 76%
[2]
  inhibition in vivo at 30 mg/kg: 67%

## OC1CCN(CCOc2ccc(Oc3nc4ccccc4[nH]3)cc2)CC1 [Example 134, 1-{2-[4-(1H-Benzoimidazol-2-yloxy)-phenoxy]-ethyl}-piperidin-4-ol]
[4]
  IC50: 110 nM
[3]; [5]
  IC50: 436 nM

## c1ccc2oc(Oc3ccc(CN4CCCCC4)cc3)nc2c1 [Example 271, 2-(4-Piperidin-1-ylmethyl-phenoxy)-benzooxazole]
[4]
  IC50: 2 nM

## CCN(CC)CCOc1ccc(Oc2nc3ccc(Cl)cc3s2)cc1 [Example 12, {2-[4-(6-Chloro-benzothiazol-2-yloxy)-phenoxy]-ethyl}-diethyl-amine]
[4]
  IC50: 100 nM

## O=C(O)CCCCCN(CCc1ccc(Oc2nc3ccccc3s2)cc1)C1CC1 [Example 419, 6-({2-[4-(Benzothiazol-2-yloxy)-phenyl]-ethyl}-cyclopropyl-amino)-hexanoic acid]
[4]
  IC50: 4 nM

## O=C(Cc1ccccc1)NC1CCN(CCc2ccc(Oc3nc4ccccc4s3)cc2)CC1 [Example 110, N-(1-{2-[4-(Benzothiazol-2-yloxy)-phenyl]-ethyl}-piperidin-4-yl)-2-phenyl-acetamide]
[4]
  IC50: 40 nM

## NC(=S)NC1CCN(Cc2ccc(Oc3nc4ccccc4s3)cc2)CC1 [Example 479, {1-[4-(Benzothiazol-2-yloxy)-benzyl]-piperidin-4-yl}-thiourea]
[4]
  IC50: 7 nM

## O=C1NCCC12CCN(CCOc1ccc(Oc3nc4ccccc4s3)cc1)CC2 [Example 25, 8-{2-[4-(Benzothiazol-2-yloxy)-phenoxy]-ethyl}-2,8-diaza-spiro[4.5]decan-1-one]
[4]
  IC50: 4 nM

## CCOC(=O)NC1CCN(Cc2ccc(Oc3nc4ccccc4s3)cc2)CC1 [Example 462, {1-[4-(Benzothiazol-2-yloxy)-benzyl]-piperidin-4-yl}-carbamic acid ethyl ester]
[4]
  IC50: 27 nM
[3]; [5]
  IC50: 144 nM

## OCC1CCN(CCOc2ccc(Oc3nc4ccccc4o3)cc2)CC1 [Example 13, (1-{2-[4-(Benzooxazol-2-yloxy)-phenoxy]ethyl}-piperidin-4-yl)-methanol]
[3]; [5]
  IC50: 41 nM

## COC(=O)NC1CCN(Cc2ccc(Oc3nc4ccccc4s3)cc2)CC1 [Example 363, {1-[4-(Benzothiazol-2-yloxy)-benzyl]-piperidin-4-yl}-carbamic acid methyl ester]
[4]
  IC50: 4 nM

## OC1CCN(CCc2ccc(Oc3nc4ccccc4[nH]3)cc2)CC1 [Example 127, 1-{2-[4-(1H-Benzoimidazol-2-yloxy)-phenyl]-ethyl}-piperidin-4-ol]
[3]; [5]
  IC50: 376 nM

## c1ccc2sc(Oc3ccc(OCCN4CCC(c5nnn[nH]5)CC4)cc3)nc2c1 [Example 270, 2-(4-{2-[4-(1H-Tetrazol-5-yl)-piperidin-1-yl]-ethoxy}-phenoxy)-benzothiazole]
[4]
  IC50: 16 nM

## OC1CCN(CCc2ccc(Oc3nc4ccccc4o3)cc2)CC1 [Example 94, 1-{2-[4-(Benzooxazol-2-yloxy)-phenyl]-ethyl}-piperidin-4-ol]
[4]
  IC50: 1 nM
[3]; [5]
  IC50: 72 nM

## OCCC1CCCCN1Cc1ccc(Oc2nc3ccccc3s2)cc1 (stereo not shown) [Example 288, 2-{1-[4-(Benzothiazol-2-yloxy)-benzyl]-piperidin-2-yl}-ethanol]
[4]
  IC50: 4 nM
[3]; [5]
  IC50: 57 nM

## O=C(O)C1CCCCN1CCc1ccc(Oc2nc3ccccc3s2)cc1 (stereo not shown) [Example 156, 1-{2-[4-(Benzothiazol-2-yloxy)-phenyl]-ethyl}-piperidine-2-carboxylic acid]
[4]
  IC50: 7 nM
[3]; [5]
  IC50: 2000 nM

## CCN(CC)Cc1ccc(Oc2nc3ccccc3s2)cc1 [Example 294, [4-(Benzothiazol-2-yloxy)-benzyl]-diethyl-amine]
[4]
  IC50: 6 nM
